Experimental data from patent US20220088024A1, “METHODS FOR TREATING CANCER USING TOZADENANT” (Biotie Therapies, Inc., priority 2018, published 2022).
Values joined by “and” are separate entries in the source; they are usually repeats but may differ in a detail not shown here. Identical values can stand only once. Like-named read-outs stand apart in the source and are kept apart here.

Legend:
[1] = Example 11: plasma pharmacokinetics (toxicokinetics) of tozadenant in mice after twice daily oral administration; format: in vivo, Crl:CD1(ICR) mice; settings: male, Crl:CD1(ICR), mouse, plasma, po
Procedure: The plasma pharmacokinetics and exposure levels of tozadendant have been documented in mice after oral administration, the same route of administration as tozadenant was dosed in the oncology efficacy studies.
The PK of tozadenant in mice was compared across a range of doses and dose frequencies. […]
Groups of mice of the Crl:CD1(ICR) strain were dosed, as follows:
The vehicle for the tozadenant in this mouse PK study was 1.6% (w/v) Avicel RC-591 (FMC), 0.2% (v/v) Tween 80, 0.18% (w/v) methylparaben and 0.02% (w/v) propylparaben in reverse osmosis water, pH 6.0±0.3. The 1.6% (w/v) Avicel RC-591 (FMC) was supplied by Biopolymer International, Brussels, Belgium. The 0.2% (v/v) Tween 80, 0.18% (w/v) methylparaben and 0.02% (w/v) propylparaben in reverse osmosis water, pH 6.0±0.3 was supplied by and Sigma-Aldrich Co Ltd, Poole, UK. This is the same formulation used for the mouse oncology model oral dosing.
The test article was administered orally by gavage, as follows:
Groups 1 to 4: Twice for one day (0 and 8 hours apart relative to initial dose)
Group 5: Twice for one day (0 and 12 hours apart relative to initial dose)
Blood samples for toxicokinetics (0.25 mL nominal) were taken from all toxicokinetic animals (subgroup 2), as follows:
For animals dosed at 0, 8 or 12 hour intervals, sampling time with respect to dose was symmetrical in each animal, for example, if an animal was sampled 0.5 hours after the first dose, it was sampled 0.5 hours after the second dose. The second sample obtained from each animal was collected under terminal anaesthesia.
Samples were taken from the orbital sinus (with the exception of Group 3 animals at the 10 hour bleed, which were taken by cardiac puncture) under isoflurane anaesthesia into K2EDTA. Samples were gently inverted to ensure mixing with anticoagulant, placed on a blood roller for at least one minute and then placed in a Kryorack until centrifugation.
Centrifugation was carried out at approximately 4-8° C. within one hour of collection. The resultant plasma from all samples was separated, transferred to uniquely labelled clear polypropylene tubes and frozen immediately at approximately <−10 to −30° C. Samples were analyzed at Covance.
Tozadenant was quantitated using protein precipitation followed by liquid chromatography mass spectrometry technique for quantification. This bioanalytical method was previously established and validated for tozadenant in mouse plasma.

[2] = test system: B16F10 Cherry melanoma metastases; assay: Example 10: number of lung tumor metastases in the B16F10 tumor mouse model; format: in vivo, C57/BL6 mice; settings: 100 mg/kg once-daily oral gavage days 0 to 13, counted day 14, Batch 71236AA006
Procedure: The C57/BL6 mouse melanoma cell line B16F10 Cherry was cultured in DMEM supplemented with 10% FCS, GlutaMAX, and penicillin/streptomycin. Tumor cells are periodically verified to be Mycoplasma negative by the Victorian Infectious Diseases References Lab (Melbourne, VIC, Australia) by PCR analysis. 2×10^5 cells were resuspended in PBS and injected i.v. into C57/BL6 mice in a 200 μL volume. At day 14 lungs were excised and the number of metastases counted under the dissecting microscope. Mice were dosed with either SYN-115 (Batch 71236AA006) at 100 mg/kg or vehicle control once-daily via oral gavage on days 0 to 13. To calculate a dose of SYN-115 mouse weight was estimated to be 20 g per mouse. Therefore, 100 mg/kg=2 mg per mouse in 200 μL, which is equivalent to 10 mg/ml. To make up 40 mL, 400 milligrams of SYN-115 was weighed and added into a Falcon tube, then 1 mL of Tween 80 was added and mixed into a paste and then 39 mL of 1% Methyl Cellulose was added. Solution was vortexed and then left on a rotating mixer for at least 2 hours and maintained at 4° C.

COc1ccc(N2CCOCC2)c2sc(NC(=O)N3CCC(C)(O)CC3)nc12 [SYN-115, 4-hydroxy-4-methyl-piperidine-1-carboxylic acid (4-methoxy-7-morpholin-4-yl-benzothiazol-2-yl)-amide]
Tmax ([1]; 100 mg/kg/day, Group 1, Male, 100 mg/kg/day (50 mg/kg/dose), oral, dosing at 0, 8 hr, read-out: Tmax): 9 h | Tmax ([1]; 100 mg/kg/day, mice, 100 mg/kg/day (50 mg/kg/dose×2) oral, 1 hour after the second dose, read-out: Average Tmax): 9 h | Cmax ([1]; 100 mg/kg/day, mice, 100 mg/kg/day (50 mg/kg/dose×2) oral, read-out: Average Cmax): 764 ng/mL | AUC(0-t) ([1]; 100 mg/kg/day, mice, 100 mg/kg/day (50 mg/kg/dose×2) oral, read-out: Average daily AUC0-24): 3520 ng·h/mL | AUC(0-inf) ([1]; 300 mg/kg/day, Group 2, Male, 300 mg/kg/day (150 mg/kg/dose), oral, dosing at 0, 8 hr): 9930 ng·h/mL | AUC(0-t) ([1]; 300 mg/kg/day, Group 2, Male, 300 mg/kg/day (150 mg/kg/dose), oral, dosing at 0, 8 hr, read-out: AUC0-8): 5030 ng·h/mL | AUC(0-t) ([1]; 300 mg/kg/day, Group 2, Male, 300 mg/kg/day (150 mg/kg/dose), oral, dosing at 0, 8 hr, read-out: AUC0-24): 9900 ng·h/mL | AUC ([1]; 300 mg/kg/day, Group 2, Male, 300 mg/kg/day (150 mg/kg/dose), oral, dosing at 0, 8 hr, read-out: AUC8-24): 4870 ng·h/mL | Cmax ([1]; 300 mg/kg/day, Group 2, Male, 300 mg/kg/day (150 mg/kg/dose), oral, dosing at 0, 8 hr, read-out: Cmax): 1720 ng/mL | Tmax ([1]; 300 mg/kg/day, Group 2, Male, 300 mg/kg/day (150 mg/kg/dose), oral, dosing at 0, 8 hr, read-out: Tmax): 8.8 h | half-life ([1]; 300 mg/kg/day, Group 2, Male, 300 mg/kg/day (150 mg/kg/dose), oral, dosing at 0, 8 hr, read-out: t1/2 (converted)): 0.971 h | AUC(0-t) ([1]; 1000 mg/kg/day, Group 3, Male, 1000 mg/kg/day (500 mg/kg/dose), oral, dosing at 0, 8 hr, read-out: AUC0-8): 13800 ng·h/mL | AUC(0-t) ([1]; 1000 mg/kg/day, Group 3, Male, 1000 mg/kg/day (500 mg/kg/dose), oral, dosing at 0, 8 hr, read-out: AUC0-24): 29900 ng·h/mL | AUC ([1]; 1000 mg/kg/day, Group 3, Male, 1000 mg/kg/day (500 mg/kg/dose), oral, dosing at 0, 8 hr, read-out: AUC8-24): 16100 ng·h/mL | Cmax ([1]; 1000 mg/kg/day, Group 3, Male, 1000 mg/kg/day (500 mg/kg/dose), oral, dosing at 0, 8 hr, read-out: Cmax): 3610 ng/mL | Tmax ([1]; 1000 mg/kg/day, Group 3, Male, 1000 mg/kg/day (500 mg/kg/dose), oral, dosing at 0, 8 hr, read-out: Tmax): 10.2 h | Tmax ([1]; 2000 mg/kg/day, 0, 8 hours dosing, all groups except females at 2000 mg/kg/day, read-out: Tmax (post dose, following the second dose)): 0.8 to 2.2 h | AUC(0-inf) ([1]; 2000 mg/kg/day, Group 4, Male, 2000 mg/kg/day (1000 mg/kg/dose), oral, dosing at 0, 8 hr): 43100 ng·h/mL | AUC(0-t) ([1]; 2000 mg/kg/day, Group 4, Male, 2000 mg/kg/day (1000 mg/kg/dose), oral, dosing at 0, 8 hr, read-out: AUC0-8): 20500 ng·h/mL | AUC(0-t) ([1]; 2000 mg/kg/day, Group 4, Male, 2000 mg/kg/day (1000 mg/kg/dose), oral, dosing at 0, 8 hr, read-out: AUC0-24): 43000 ng·h/mL | AUC ([1]; 2000 mg/kg/day, Group 4, Male, 2000 mg/kg/day (1000 mg/kg/dose), oral, dosing at 0, 8 hr, read-out: AUC8-24): 22500 ng·h/mL | Cmax ([1]; 2000 mg/kg/day, Group 4, Male, 2000 mg/kg/day (1000 mg/kg/dose), oral, dosing at 0, 8 hr, read-out: Cmax): 5080 ng/mL | Tmax ([1]; 2000 mg/kg/day, Group 4, Male, 2000 mg/kg/day (1000 mg/kg/dose), oral, dosing at 0, 8 hr, read-out: Tmax): 9 h | half-life ([1]; 2000 mg/kg/day, Group 4, Male, 2000 mg/kg/day (1000 mg/kg/dose), oral, dosing at 0, 8 hr, read-out: t1/2 (converted)): 2.02 h | AUC(0-inf) ([1]; 2000 mg/kg/day, Group 5, Male, 2000 mg/kg/day (1000 mg/kg/dose), oral, dosing at 0, 12 hr): 31300 ng·h/mL | AUC(0-t) ([1]; 2000 mg/kg/day, Group 5, Male, 2000 mg/kg/day (1000 mg/kg/dose), oral, dosing at 0, 12 hr, read-out: AUC0-12): 17800 ng·h/mL | AUC(0-t) ([1]; 2000 mg/kg/day, Group 5, Male, 2000 mg/kg/day (1000 mg/kg/dose), oral, dosing at 0, 12 hr, read-out: AUC0-24): 31100 ng·h/mL | AUC ([1]; 2000 mg/kg/day, Group 5, Male, 2000 mg/kg/day (1000 mg/kg/dose), oral, dosing at 0, 12 hr, read-out: AUC12-24): 13300 ng·h/mL | Cmax ([1]; 2000 mg/kg/day, Group 5, Male, 2000 mg/kg/day (1000 mg/kg/dose), oral, dosing at 0, 12 hr, read-out: Cmax): 6440 ng/mL | Tmax ([1]; 2000 mg/kg/day, Group 5, Male, 2000 mg/kg/day (1000 mg/kg/dose), oral, dosing at 0, 12 hr, read-out: Tmax): 1.1 h | half-life ([1]; 2000 mg/kg/day, Group 5, Male, 2000 mg/kg/day (1000 mg/kg/dose), oral, dosing at 0, 12 hr, read-out: t1/2 (converted)): 1.36 h | Tmax ([1]; 2000 mg/kg/day, males, 0, 12 hour dosing, read-out: Tmax (following the first dose)): 1.1 h | half-life ([1]; mice, all dose levels where calculated, read-out: Half-lives): 1 to 2 h | Number of Tumor Metastases (lung), individual mice ([2]; AC#009 Males): 0 (2×) and 9 and 5 and 16 and 13 and 1 | Number of Tumor Metastases (lung), individual mice ([2]; AC#010 Females): 166 and 38 and 141 and 32 and 137 and 264 and 23 and 226
